# Key:
# [1] = system: microvascular lipid hydroperoxides; test: Pharmacokinetic time-course (double-blind) study of single oral doses of NDGA, microvascular lipid hydroperoxides; assay type: in vivo, human
# Description: Placebos were given to two (2) other volunteers. Using the above referenced non-invasive technique called reflective, near-infrared spectroscopy, changes in the microvascular concentrations of lipid hydroperoxides were monitored during 8 hour test periods. […] Subjects received single doses of NDGA and placebos orally, respectively.
# Uppsala mice = Uppsala mice fed lab chow containing 0.5 weight% NDGA, observation of aging and skin wrinkling; assay type: in vivo
# Excerpt: In one aspect of practice of techniques of this invention, the compounds of formula (1) are useful in retarding the aging phenomena of skin wrinkling. In this example, twenty four (24) Uppsala mice were fed standard lab chow (provided by Anticimax of Sodertalje, Sweden) containing 0.5 weight% NDGA ad libitum from the twelfth to thirty-sixth month of their lifespan.
# This increased wrinkling is indicative of collagen and elastin hardening and cross-linking via the conversion of imide to amide bonds as discussed above.
# [2] = system: lipid hydroperoxides in the skin; assay type: in vivo, human
# Excerpt: FIG. 3 is a graph showing the results of a double blind study set forth in Example 6, wherein a composition containing 2% NDGA by weight was applied topically to the skin of the foreheads of human volunters; and
# Turning to FIG. 3, the results of a double-blind time study using a composition containing 2% by weight NDGA can be seen. This composition was the same as the composition set forth in Example 3 with the exception that the percentage of water was reduced to 86.5%. Starting at time zero, 10 milliliters of this cream was vigorously applied topically onto the skin of the forehead of a volunteer. Measurements were taken at different intervals using non-invasive, reflective, near-infrared spectroscopy. The methods of non-invasive, reflective, near infrared spectroscopy used in this example are set forth in detail in R. Lippman, "Rapid in vivo Quantification and Comparision of Hydroperoxides and Oxidized Collagen in Aging Mice, Rabbits and Man", Experimental Gerontology, Vol. 20, pp. 1-5, 1985, which is incorporated herein by this reference.
# [3] = system: Mitochondria from a human liver; test: Chemiluminescent probe of superoxide and hydroxyl radicals in isolated mitochondria; assay type: biochemical
# Excerpt: Mitrochondria from a human liver were freshly isolated and maintained in a culture environment so that normal respiration and ATP production occurred. Special chemical probes, e.g. luminol-carnitine derivatives, were pipetted into the mitochondria culture media. Uptake of the probes occurred in the mitrochondrial inner membrane where oxygen metabolism and toxic oxygen byproducts are produced. The probes emitted chemiluminescent light in proportion to superoxide (O2^-.) and hydroxyl radicals (.OH). This light was measured by a photomultiplier, and the results were quantified and recorded.
# [4] = system: Glial cells from a human brain; test: Cellular ATP production in cultivated glial cells (bioluminescence); assay type: cell-based; conditions: NDGA 0.5% w/v in culture
# Description: Glial cells from a human brain were cultivated by monolayering on Petri dishes. Cellular ATP production was measured using bioluminescent methods (luciferin, luciferase and photomultiplier detection).
# [5] = isolated human liver mitochondria
structure (smiles),measurement,setting,value
"CC(Cc1ccc(O)c(O)c1)C(C)Cc1ccc(O)c(O)c1 (stereo not drawn) [NDGA, 1,4-bis(3,4-dihydroxyphenyl)-2,3-dimethylbutane]",reduction of levels of microvascular lipid hydroperoxides,"[1]; oral, single doses 50, 75, 100 and 200 mg, during the 4 to 8 hour study periods",at least 15%
same,"neutralization of toxic byproducts of oxygen metabolism, i.e. lipid hydroperoxides (conclusion)","[1]; when taken at regular intervals of at least 6 hours, 3 times daily",effective neutralizer of toxic byproducts of oxygen metabolism
same,"skin wrinkling, control mice versus NDGA fed mice",Uppsala mice; 0.5 weight% NDGA in chow,greater skin wrinkling in control mice versus NDGA fed mice
same,visual appearance (youthful and healthy) versus control mice,"Uppsala mice; 0.5 weight% NDGA in chow from twelfth month, at 26 months of age",visually more youthful and healthy
same,NDGA fed mice still living,"Uppsala mice; 24 mice at start, 0.5 weight% NDGA in chow, one control mouse of 6 remaining",four
same,"facial skin and skin unsaturated lipids, damage",[2]; 2% by weight NDGA cream topically on forehead,"facial skin and skin unsaturated lipids are preserved, and damage is prevented"
same,return to normal level of lipid hydroperoxides,"[2]; 2% by weight NDGA cream topically, after approximately 4 hours",190 micromole/cm^2
same,"lipid hydroperoxides in skin layers and microvascularization, level decreased to","[2]; 2% by weight NDGA cream, 10 milliliters topically on forehead, after about one hour, from about 190",~151 micromole/cm^2 skin
same,lifespan of the human mitochondria,[3]; [5],Increased lifespan of the human mitochondria
same,toxic oxygen byproducts,[3]; [5],significantly reduced toxic oxygen byproducts
same,steady state light (chemiluminescence of superoxide and hydroxyl radicals),[3]; luminol-carnitine derivative probes,significantly reduced the steady state light
same,steady state ATP production,[4],increase in steady state ATP production was observed
